Data set [1] deals with Fusarium culmorum. The data set is described as follows: microbe, parasite or virus in culture. The format is cell-based. The settings on record: read-out: control of Fusarium culmorum.
In data set [2] the test system is Botryotinia fuckeliana (Botrytis cinerea). Nature of the data set: Botryotinia fuckeliana (Botrytis cinerea) / liquid culture (gray mould). To be noted: 72 h, read-out: control of Botryotinia fuckeliana. It counts as cell-based.
The test system of data set [3] is Fusarium culmorum. Nature of the data set: whole plant or invertebrate. It counts as in vivo. To be noted: in Triticum aestivum, read-out: control of Fusarium culmorum.
In data set [4] the test system is Glomerella lagenarium (Colletotrichum lagenarium). The data set is described as follows: Glomerella lagenarium (Colletotrichum lagenarium) / liquid culture (anthracnose). The settings on record: Colletotrichum orbiculare; read-out: control of Glomerella lagenarium. The format is cell-based.
Data set [5] deals with Monographella nivalis (Microdochium nivale). Nature of the data set: Monographella nivalis (Microdochium nivale) / liquid culture (foot rot cereals). The format is cell-based. The settings on record: 96 h, read-out: control of Monographella nivalis.

Molecules are shown by their SMILES.

As a reminder, the melting point is the temperature, or range, at which the solid turns liquid. Take `CC(C)CC(C)(Cc1ccccc1)NC(=O)c1cc2cccc(F)c2nc1Cl` (stereo not shown) [Compound E-106, N-(1-benzyl-1,3-dimethyl-butyl)-2-chloro-8-fluoro-quinoline-3-carboxamide]: the melting point was in the range of 106 to 108 °C. Also, the inhibition of growth at 200 ppm in data set [1] was not below 80%. In addition, the inhibition of growth at 200 ppm in data set [2] is not below 80%. In data set [3], the pest or weed control at 200 ppm is not below 80%. In data set [4], the inhibition of growth at 200 ppm was not below 80%.

Consider `Cc1cccc2ncc(C(=O)NC(C)(Cc3ccccc3)CC(F)(F)F)cc12` (stereo not shown) [Compound E-86, N-(1-benzyl-3,3,3-trifluoro-1-methyl-propyl)-5-methyl-quinoline-3-carboxamide], for which the melting point fell in the range of 101 to 103 °C. The inhibition of growth at 200 ppm in data set [1] is not below 80%. For the same molecule, the inhibition of growth at 200 ppm in data set [2] was not below 80%. In addition, the pest or weed control at 200 ppm in data set [3] was not below 80%. Further, in data set [4], the inhibition of growth at 200 ppm was not below 80%.

As to `C=C(C)C[C@](C)(Cc1ccccc1)NC(=O)c1cnc2c(F)c(F)ccc2c1` [Compound F-20, N-[(1R)-1-benzyl-1,3-dimethyl-but-3-enyl]-7,8-difluoro-quinoline-3-carboxamide], the inhibition of growth at 200 ppm in data set [1], in data set [5], in data set [2] and in data set [4] was not below 80% throughout. Besides, in data set [3], the pest or weed control at 200 ppm was not below 80%.

Consider `CCC(Cc1ccccc1)(CC(F)(F)F)NC(=O)c1cnc2c(F)cccc2c1` (stereo not shown) [Compound E-101, N-(1-benzyl-1-ethyl-3,3,3-trifluoro-propyl)-8-fluoro-quinoline-3-carboxamide], for which the melting point lay in the range of 127 to 129 °C. For the same molecule, the inhibition of growth at 200 ppm in data set [1] was not below 80%. For the same molecule, the inhibition of growth at 200 ppm in data set [2] was not below 80%. Besides, in data set [3], the pest or weed control at 200 ppm was not below 80%. Also, the inhibition of growth at 200 ppm in data set [4] is not below 80%.

In the case of `COCCC(C)(Cc1ccccc1)NC(=O)c1cnc2c(F)cccc2c1` (stereo not shown) [Compound E-121, N-(1-benzyl-3-methoxy-1-methyl-propyl)-8-fluoro-quinoline-3-carboxamide], the inhibition of growth at 200 ppm in data set [1], in data set [5] and in data set [2] was not below 80% throughout.

For `CCOC(OCC)C(C)(Cc1ccccc1)NC(=O)c1cnc2c(F)cccc2c1` (stereo not shown) [Compound E-116, N-(1-benzyl-2,2-diethoxy-1-methyl-ethyl)-8-fluoro-quinoline-3-carboxamide], the inhibition of growth at 200 ppm in data set [1], in data set [5] and in data set [2] was not below 80% throughout.

Consider `CC(Cc1ccccc1)(CC(F)(F)Cl)NC(=O)c1cnc2c(F)cccc2c1` (stereo not shown) [Compound E-97, N-(1-benzyl-3-chloro-3,3-difluoro-1-methyl-propyl)-8-fluoro-quinoline-3-carboxamide], for which the inhibition of growth at 200 ppm in data set [1], in data set [5], in data set [2] and in data set [4] was not below 80% throughout. Besides, the pest or weed control at 200 ppm in data set [3] is not below 80%.

`Cc1c(C(=O)N[C@@](C)(Cc2ccccc2)CC(F)(F)F)cnc2c(F)cccc12` [Compound F-29, N-[(1S)-1-benzyl-3,3,3-trifluoro-1-methyl-propyl]-8-fluoro-4-methyl-quinoline-3-carboxamide]: the inhibition of growth at 200 ppm in data set [1], in data set [5], in data set [2] and in data set [4] was not below 80% each time. In addition, the pest or weed control at 200 ppm in data set [3] was not below 80%.

As for `C/C=C/C(C)(Cc1ccccc1)NC(=O)c1cnc2ccccc2c1` (stereo not shown) [Compound E-88, N-[(E)-1-benzyl-1-methyl-but-2-enyl]quinoline-3-carboxamide], the inhibition of growth at 200 ppm in data set [1], in data set [5] and in data set [2] was not below 80% each time. The pest or weed control at 200 ppm in data set [3] is not below 80%.

For `Cc1cccc2cc(C(=O)N[C@@](C)(Cc3ccccc3)CC(F)(F)F)cnc12` [Compound F-27, N-[(1S)-1-benzyl-3,3,3-trifluoro-1-methyl-propyl]-8-methyl-quinoline-3-carboxamide], the inhibition of growth at 200 ppm in data set [1], in data set [5], in data set [2] and in data set [4] was not below 80% each time. Further, the pest or weed control at 200 ppm in data set [3] is not below 80%.

The molecule `Cc1c(C(=O)NC(C)(Cc2ccccc2)CC(F)(F)F)cnc2c(Cl)cccc12` (stereo not shown) [Compound E-104, N-(1-benzyl-3,3,3-trifluoro-1-methyl-propyl)-8-chloro-4-methyl-quinoline-3-carboxamide] registered a melting point of 184 to 186 °C. The inhibition of growth at 200 ppm in data set [1] was not below 80%. In addition, in data set [2], the inhibition of growth at 200 ppm was not below 80%. Besides, in data set [3], the pest or weed control at 200 ppm was not below 80%. Further, in data set [4], the inhibition of growth at 200 ppm was not below 80%.

As to `C[C@](Cc1ccccc1)(CC(F)F)NC(=O)c1cnc2c(F)cccc2c1` [Compound F-32, N-[(1S)-1-benzyl-3,3-difluoro-1-methyl-propyl]-8-fluoro-quinoline-3-carboxamide], the inhibition of growth at 200 ppm in data set [1], in data set [5], in data set [2] and in data set [4] was not below 80% each time. Further, the pest or weed control at 200 ppm in data set [3] was not below 80%.

For `Cc1nc2c(C#N)cccc2cc1C(=O)NC(C)(Cc1ccccc1)CC(F)(F)F` (stereo not shown) [Compound E-113, N-(1-benzyl-3,3,3-trifluoro-1-methyl-propyl)-8-cyano-2-methyl-quinoline-3-carboxamide], the melting point fell in the range of 136 to 140 °C. The inhibition of growth at 200 ppm in data set [1] was not below 80%. Also, in data set [2], the inhibition of growth at 200 ppm is not below 80%. In addition, the pest or weed control at 200 ppm in data set [3] was not below 80%. Besides, the inhibition of growth at 200 ppm in data set [4] was not below 80%.

Regarding `C=C(C)C[C@@](C)(Cc1ccccc1)NC(=O)c1cnc2c(F)cccc2c1` [Compound F-9, N-[(1S)-1-benzyl-1,3-dimethyl-but-3-enyl]-8-fluoro-quinoline-3-carboxamide], the inhibition of growth at 200 ppm in data set [1], in data set [5], in data set [2] and in data set [4] was not below 80% throughout. Also, in data set [3], the pest or weed control at 200 ppm is not below 80%.

With `Cc1c(C(=O)N[C@](C)(Cc2ccccc2)CC(F)(F)F)cnc2c(F)cccc12` [Compound F-30, N-[(1R)-1-benzyl-3,3,3-trifluoro-1-methyl-propyl]-8-fluoro-4-methyl-quinoline-3-carboxamide], the inhibition of growth at 200 ppm in data set [1], in data set [5], in data set [2] and in data set [4] was not below 80% throughout.

`CC(Cc1ccccc1)(CC(F)(F)F)NC(=O)c1cnc2c(Cl)c(F)ccc2c1` (stereo not shown) [Compound E-93, N-(1-benzyl-3,3,3-trifluoro-1-methyl-propyl)-8-chloro-7-fluoro-quinoline-3-carboxamide] displayed a melting point of 150 to 152 °C. In data set [1], the inhibition of growth at 200 ppm was not below 80%. Moreover, the inhibition of growth at 200 ppm in data set [2] is not below 80%. Also, the pest or weed control at 200 ppm in data set [3] is not below 80%. In addition, in data set [4], the inhibition of growth at 200 ppm is not below 80%.

For the molecule `CC(Cc1ccccc1)(CC(F)(F)F)NC(=O)c1cnc2c(F)c(F)ccc2c1` (stereo not shown) [Compound E-102, N-(1-benzyl-3,3,3-trifluoro-1-methyl-propyl)-7,8-difluoro-quinoline-3-carboxamide], the melting point fell in the range of 158 to 160 °C. In addition, the inhibition of growth at 200 ppm in data set [1] is not below 80%. In addition, the inhibition of growth at 200 ppm in data set [2] is not below 80%. In addition, in data set [3], the pest or weed control at 200 ppm is not below 80%. The inhibition of growth at 200 ppm in data set [4] is not below 80%.

With `CON=CC(C)(Cc1ccccc1)NC(=O)c1cnc2c(F)cccc2c1` (stereo not shown) [Compound E-117, N-(1-benzyl-2-methoxyimino-1-methyl-ethyl)-8-fluoro-quinoline-3-carboxamide], the inhibition of growth at 200 ppm in data set [1], in data set [5] and in data set [2] was not below 80% in each case.

Molecule `CC(C=C(F)F)(Cc1ccccc1)NC(=O)c1cnc2c(F)cccc2c1` (stereo not shown) [Compound E-94, N-(1-benzyl-3,3-difluoro-1-methyl-allyl)-8-fluoro-quinoline-3-carboxamide] showed a melting point of 99 to 101 °C. Also, the inhibition of growth at 200 ppm in data set [1] was not below 80%. Moreover, the inhibition of growth at 200 ppm in data set [2] is not below 80%. Moreover, the pest or weed control at 200 ppm in data set [3] is not below 80%. Moreover, the inhibition of growth at 200 ppm in data set [4] is not below 80%.

With `CC(Cc1ccccc1F)(CC(F)(F)F)NC(=O)c1cnc2c(F)cccc2c1` (stereo not shown) [Compound E-98, 8-fluoro-N-[3,3,3-trifluoro-1-[(2-fluorophenyl)methyl]-1-methyl-propyl]quinoline-3-carboxamide], the melting point was in the range of 131 to 133 °C. Moreover, the inhibition of growth at 200 ppm in data set [1] was not below 80%. Also, in data set [2], the inhibition of growth at 200 ppm is not below 80%. Moreover, in data set [3], the pest or weed control at 200 ppm was not below 80%. Moreover, the inhibition of growth at 200 ppm in data set [4] was not below 80%.

In the case of `Cc1c(C(=O)NC(C)(Cc2ccccc2)CC(F)(F)F)cnc2c(F)cccc12` (stereo not shown) [Compound E-90, N-(1-benzyl-3,3,3-trifluoro-1-methyl-propyl)-8-fluoro-4-methyl-quinoline-3-carboxamide], the melting point is 154 to 158 °C. Further, in data set [1], the inhibition of growth at 200 ppm is not below 80%. For the same molecule, the inhibition of growth at 200 ppm in data set [2] is not below 80%. Moreover, in data set [3], the pest or weed control at 200 ppm is not below 80%. For the same molecule, the inhibition of growth at 200 ppm in data set [4] is not below 80%.

For the origin of these results see patent US10477864B2, “Microbiocidal quinoline (thio)carboxamide derivatives” (priority 2016, dated 2019).
